Results from ChEMBL document CHEMBL4732172, “Discovery, semisynthesis and neurite outgrowth-promoting activity of novel merrillianone/cycloparviforalone based esters as neurotrophic agents” (Bioorg Med Chem Lett, 2021).
Calls of active or inactive are those of the source. No cut-off for these calls is given here.

How the values were obtained:
PC-12 [1] = assay: Neurotrophic activity in rat PC-12 cells assessed as neurite outgrowth promoting activity in NGF-induced cells by measuring differentiation rate at 10 […] (reference value: 4.24 +/- 0.03 %); assay type: functional; design: concentration or dose not given beside the values
PC-12 [2] = assay: Neurotrophic activity in rat PC-12 cells assessed as neurite outgrowth promoting activity in NGF-induced cells by measuring differentiation rate at 10 […] relative to cycloparviforalone; assay type: functional
PC-12 [3] = assay: Induction of neurite outgrowth in NGF-induced rat PC-12 cells assessed as increase in average neurite length at 10 uM in presence of by methylene blue staining based light microscopy; assay type: functional, cell-based
PC-12 [4] = assay: Neurotrophic activity in rat PC-12 cells assessed as neurite outgrowth promoting activity in NGF-induced cells by measuring differentiation rate at 10 […] relative to merrillianone; assay type: functional
[5] = Hydrolytic stability in phosphate buffer with pH 3.5 assessed as retention time measured after 4 hrs by HPLC analysis; assay type: physicochemical; settings: pH 3.5, 4 h
[6] = Hydrolytic stability in phosphate buffer with pH 3.5 assessed as retention time measured after 2 hrs by HPLC analysis; assay type: physicochemical; settings: pH 3.5, 2 h
[7] = Hydrolytic stability in phosphate buffer with pH 3.5 assessed as retention time measured after 6 hrs by HPLC analysis; assay type: physicochemical; settings: pH 3.5, 6 h

Row | SMILES | Activity (PC-12 [1]) [%] | also measured
1 | C[C@@H]1CC=C2[C@]13C[C@@]1(O)OC(OC[C@@]2(C)[C@@]1(C)O)[C@@H]3O | 5.31 | 
2 | C[C@@H]1CC[C@@]2(O)[C@]13C[C@@]1(OC(=O)CCc4ccc(Cl)cc4)OC(OC[C@@]2(C)[C@@]1(C)O)[C@@H]3O | 5.87 | 
3 | C/C=C/C=C/C(=O)O[C@]12C[C@]34[C@H](C)CC[C@]3(O)[C@@](C)(COC(O1)[C@@H]4O)[C@@]2(C)O | 11.74 | fold change (FC) (PC-12 [2]): 2; Activity (PC-12 [3]): Active; fold change (FC) (PC-12 [4]): 2
4 | C[C@@H]1CC=C2[C@]13C[C@@]1(O)OC(OC[C@@]2(C)[C@@]1(C)O)[C@@H]3OC(=O)CCc1cccc(Br)c1 | 5.26 | 
5 | C[C@@H]1CC[C@@]2(O)[C@]13C[C@@]1(OC(=O)CCc4ccc(F)cc4)OC(OC[C@@]2(C)[C@@]1(C)O)[C@@H]3O | 10.41 | fold change (FC) (PC-12 [2]): 2; Activity (PC-12 [3]): Active; fold change (FC) (PC-12 [4]): 2
6 | C[C@@H]1CC[C@@]2(O)[C@]13C[C@@]1(OC(=O)Cc4cccc(Br)c4)OC(OC[C@@]2(C)[C@@]1(C)O)[C@@H]3O | 7.35 | 
7 | C[C@@H]1CC[C@@]2(O)[C@]13C[C@@]1(OC(=O)CCc4cccc(Cl)c4)OC(OC[C@@]2(C)[C@@]1(C)O)[C@@H]3O | 4.57 | 
8 | C[C@@H]1CC[C@@]2(O)[C@]13C[C@@]1(OC(=O)CCc4ccc(Br)cc4)OC(OC[C@@]2(C)[C@@]1(C)O)[C@@H]3O | 6.15 | 
9 | C[C@@H]1CC[C@@]2(O)[C@]13C[C@@]1(OC(=O)/C=C/c4ccccc4)OC(OC[C@@]2(C)[C@@]1(C)O)[C@@H]3O | 5.03 | 
10 | C[C@@H]1CC[C@@]2(O)[C@]13C[C@@]1(OC(=O)Cc4ccc(Cl)cc4)OC(OC[C@@]2(C)[C@@]1(C)O)[C@@H]3O | 4.9 | 
11 | C[C@@H]1CC=C2[C@]13C[C@@]1(O)OC(OC[C@@]2(C)[C@@]1(C)O)[C@@H]3OC(=O)CCc1ccc(Br)cc1 | 6.03 | 
12 | C[C@@H]1CC[C@@]2(O)[C@]13C[C@@]1(OC(=O)CCc4cccc(F)c4)OC(OC[C@@]2(C)[C@@]1(C)O)[C@@H]3O | 6.35 | 
13 | C[C@@H]1CC[C@@]2(O)[C@]13C[C@@]1(O)OC(OC[C@@]2(C)[C@@]1(C)O)[C@@H]3O | 5.75 | 
14 | C[C@@H]1CC=C2[C@]13C[C@@]1(O)OC(OC[C@@]2(C)[C@@]1(C)O)[C@@H]3OC(=O)CCc1cccc(Cl)c1 | 5.6 | 
15 | C[C@@H]1CC=C2[C@]13C[C@@]1(O)OC(OC[C@@]2(C)[C@@]1(C)O)[C@@H]3OC(=O)CCc1ccccc1 | 5.81 | 
16 | C[C@@H]1CC[C@@]2(O)[C@]13C[C@@]1(OC(=O)Cc4ccc(Br)cc4)OC(OC[C@@]2(C)[C@@]1(C)O)[C@@H]3O | 6.12 | 
17 | C[C@@H]1CC=C2[C@]13C[C@@]1(O)OC(OC[C@@]2(C)[C@@]1(C)O)[C@@H]3OC(=O)CCc1cccc(F)c1 | 4.97 | 
18 | C[C@@H]1CC=C2[C@]13C[C@@]1(O)OC(OC[C@@]2(C)[C@@]1(C)O)[C@@H]3OC(=O)CCc1ccc(F)cc1 | 5.43 | 
19 | C/C=C/C=C/C(=O)O[C@H]1C2OC[C@]3(C)C4=CC[C@@H](C)[C@@]41C[C@@](O)(O2)[C@]3(C)O | 11.11 | fold change (FC) (PC-12 [2]): 2; Activity (PC-12 [3]): Active; fold change (FC) (PC-12 [4]): 2
20 | C[C@@H]1CC[C@@]2(O)[C@]13C[C@@]1(OC(=O)Cc4cccc(F)c4)OC(OC[C@@]2(C)[C@@]1(C)O)[C@@H]3O | 6.52 | 
21 | C[C@@H]1CC[C@@]2(O)[C@]13C[C@@]1(OC(=O)Cc4cccc(Cl)c4)OC(OC[C@@]2(C)[C@@]1(C)O)[C@@H]3O | 7.13 | 
22 | C[C@@H]1CC=C2[C@]13C[C@@]1(O)OC(OC[C@@]2(C)[C@@]1(C)O)[C@@H]3OC(=O)CCC(=O)c1ccccc1 | 7.21 | 
23 | C[C@@H]1CC[C@@]2(O)[C@]13C[C@@]1(OC(=O)Cc4ccc5ccccc5c4)OC(OC[C@@]2(C)[C@@]1(C)O)[C@@H]3O | 4.76 | Retention_time [5]: 15.97 min; Retention_time [6]: 15.77 min; Retention_time [7]: 16.154 min
24 | C[C@@H]1CC[C@@]2(O)[C@]13C[C@@]1(OC(=O)CCc4cccc(Br)c4)OC(OC[C@@]2(C)[C@@]1(C)O)[C@@H]3O | 5.26 | 
25 | C[C@@H]1CC[C@@]2(O)[C@]13C[C@@]1(OC(=O)CCC(=O)c4ccccc4)OC(OC[C@@]2(C)[C@@]1(C)O)[C@@H]3O | 5.69 | 
26 | C[C@@H]1CC=C2[C@]13C[C@@]1(O)OC(OC[C@@]2(C)[C@@]1(C)O)[C@@H]3OC(=O)CCc1ccc(Cl)cc1 | 6.05 | 
27 | C[C@@H]1CC[C@@]2(O)[C@]13C[C@@]1(OC(=O)Cc4ccc(F)cc4)OC(OC[C@@]2(C)[C@@]1(C)O)[C@@H]3O | 5.74 | 
